According to patent publication US20110065138A1, “Quantitative Method For Detecting Yessotoxins In Fishery Products On Based On The Activation That The Toxin Produces In Cellular Phosphodiesterases And Therapeutic Use Of This Activation” (UNIVERSIDADE DE SANTIAGO DE COMPOSTELA, priority 2003, published 2011):

Experiments:
[1] = tested on: HEP-G2 cells; experiment: HEP-G2 cell growth inhibition by crystal violet staining; format: cell-based; conditions: Homo sapiens, HepG2, 10 μM of YTX, 48 hours incubation, absorbance 595 nm
Text: Neoplasic cell growth inhibition is an indicator of antitumor activity widely used to describe antineoplasic properties of new drugs. […] The ability of YTX as a cytotoxic drug for hepatic carcinoma tumor cells is quantified in the present use. Cell growth inhibition can be determined according to different protocols described in the literature. One of these protocols is set forth below in which the response is quantified in the HEP-G2 cell line by means of crystal violet staining and subsequent acetylation.
a.—HEP-G2 cells are seeded on a microtitration plate with a density of 10000 cells per well. They are incubated for 24 hours with growth medium at 37° C. and 5% CO2.
b.—Different concentrations of YTX are added and it is incubated for 48 hours at 37° C. and 5% CO2.
c.—10 μL of 11% glutaraldehyde are added to fix the cells and it is incubated for 15 minutes. It is washed 3-4 times with distilled water.
d.—A 0.1% solution of crystal violet is added and the plate is shaken for 15 minutes.
e.—The dye is removed by washing with distilled water and it is subsequently dried.
f.—10% acetic acid is added and shaking is maintained for 15 minutes.
g.—Absorbance is read in a spectrophotometer at 595 nanometers.
h.—It was found with this protocol that 10 μM of YTX induce cell growth inhibition of about 82+/−1%.

[2] = tested on: rat mastocytes; experiment: Inhibition of histamine release induced by immunological stimulus (ovalbumin) in rat mastocytes; format: cell-based
Text: Immunological activation of mastocytes and basophils requires a temporary increase of cAMP. This increase is indispensable for cell response activation (Botana and MacGlashan, 1994). PDE activation cancels this initial cAMP peak, and therefore prevents cell activation. In the presence of YTX, i.e. with activated PDEs, cell response will be inhibited. The inhibiting effect can be used in antiallergic or antiasthmatic therapeutic strategies, these being two pathologies in which mastocytes play a predominant role (Metcalfe, Baram, D. et al., 1997). The present use describes the quantification of the inhibition that YTX produces on cell activation induced by immunological stimulus in mastocytes in rats. Cell response inhibition can be determined according to different protocols described in the literature. One in which the response is quantified according to the histamine released by mastocytes in rats into the extracellular medium is set forth below (Alfonso, Cabado, A. G. et al., 2000; Estévez, Vieytes, et al., 1994).
a.—The rats are sensitized 15 days before conducting the experiment. […]
g.—The histamine is finally quantified, converting it into a fluorescent molecule by reaction in a base medium with o-phthalic dialdehyde. The reaction is stopped with hydrochloric acid and the fluorescence is read at 360 nm excitation and 460 nm emission.

[3] = tested on: cellular phosphodiesterases (PDEs); experiment: Activation of cellular phosphodiesterases (destruction of cAMP); format: biochemical
Text: A usual way of detecting cellular PDE activity is to observe their ability to destroy cAMP. There is a fluorescent derivative of cAMP, anthraniloyl-cAMP (excitation wavelength: 350 nm, emission wavelength: 445 nm), the fluorescence of which decreases as it degrades. The decrease of fluorescence over time can be expressed as the destruction rate of cAMP. In the presence of PDEs, the destruction rate increases, and if these enzymes are activated, the degradation rate will be even greater. In the present invention the degradation rate of the fluorescent indicator anthraniloyl-cAMP in the presence of PDEs is determined and its variation when samples with YTX are added is studied. Fluorescence is read with a fluorimeter that is prepared for reading microtitration plates. The destruction rate is determined in the presence of several known concentrations of YTX. […]
The method is carried out in a microtitration plate in a temperature range between 22 and 37° C. and the fluorescence is measured at an excitation wavelength of 360 nanometers and an emission wavelength of 460 nanometers.
a.—Test buffer (10 mM Tris HCl+1 mM CaCl2 pH 7.4) is added in all the wells for a final incubation volume of 100 μL, and the corresponding amount, depending on the type of well, of anthraniloyl-cAMP. A first reading is performed for 2 minutes. […]

[4] = tested on: cellular phosphatases; conditions: in contrast to okadaic acid (Draisci, Lucentini et al., 2000); cited from earlier work

C=CCC(=C)/C=C/[C@@](C)(O)[C@H]1O[C@@H]2C[C@@H]3O[C@@H]4C[C@@H]5O[C@@H]6C[C@@H]7O[C@@H]8C[C@@H]9O[C@@H]%10C[C@@H]%11O[C@](C)(CCOS(=O)(=O)O)[C@@H](OS(=O)(=O)O)C[C@H]%11O[C@H]%10C[C@H]9O[C@H]8CC[C@@]7(C)O[C@@]6(C)CC[C@H](C)[C@H]5O[C@H]4C[C@@]3(C)O[C@H]2CC1=C [YTX, yessotoxin]
inhibition at 10 µM [1]: ~82% | effect on histamine release activated by immunological stimulus [2]: histamine release inhibitor | effect on PDE activity [3]: PDE activator | effect on cellular phosphatases [4]: does not inhibit
